Measurements taken from patent publication US7060822B1, “2-pyrazolin-5-ones” (Abbott GmbH & Co. KG, priority 1999, dated 2006).

A melting point of 290 to 293 °C was found for `CCOC1=NNC(=O)C1=Cc1cc(C(=O)O)c[nH]1` [Example 154, 4-[(4-Carboxypyrrol-2-yl)methylene]-3-ethoxy-2-pyrazolin-5-one] in this work.
A melting point of 158 to 160 °C was found for `CCOC1=NNC(=O)C1=Cc1[nH]c(C)c(C(=O)NCCN(C)C)c1C` [Example 155, 4-{[3,5-Dimethyl-4-(2-dimethylaminoethylaminocarbonyl)pyrrol-2-yl)methylene}-3-ethoxy-2-pyrazolin-5-one] in this work.
A melting point of 225 to 227 °C was found for `CCOC1=NNC(=O)C1=Cc1[nH]c(Cl)c(CC(=O)OC)c1C(=O)OC` [Example 156, 4-[(5-Chloro-3-methoxycarbonyl-4-methoxycarbonylmethylpyrrol-2-yl)methylene]-3-ethoxy-2-pyrazolin-5-one] in this work.
A melting point of 255 to 257 °C was found for `CCOC1=NNC(=O)C1=Cc1[nH]cc(C)c1CCC(=O)O` [Example 157, 4-{[3-(2-Carboxyethyl)-4-methylpyrrol-2-yl]methylene}-3-ethoxy-2-pyrazolin-5-one] in this work.
A melting point of 232 to 234 °C was found for `CCOC(=O)c1c(C)[nH]c(C=C2C(=O)NN=C2OCC)c1C` [Example 158, 4-[(3,5-Dimethyl-4-ethoxycarbonylpyrrol-2-yl)methylene]-3-ethoxy-2-pyrazolin-5-one] in this work.
A melting point of 252 to 254 °C was found for `CCOC(=O)c1c(C)[nH]c(C=C2C(=O)NN=C2C(F)(F)F)c1C` [Example 160, 4-[(3,5-Dimethyl-4-ethoxycarbonylpyrrol-2-yl)methylene]-3-trifluoromethyl-2-pyrazolin-5-one] in this work.
A melting point of 255 to 257 °C was found for `CCOC(=O)c1c(C)[nH]c(C=C2C(=O)NN=C2c2ccno2)c1C` [Example 161, 4-[(3,5-Dimethyl-4-ethoxycarbonylpyrrol-2-yl)methylene]-3-(5-isoxazolyl)-2-pyrazolin-5-one] in this work.
A melting point of 214 to 216 °C was found for `CCOC(=O)c1c(C)[nH]c(C=C2C(=O)NN=C2c2cccc(N)c2)c1C` [Example 162, 3-(3-Aminophenyl)-4-[(3,5-Dimethyl-4-ethoxycarbonylpyrrol-2-yl)methylene]-2-pyrazolin-5-one] in this work.
A melting point of 255 to 257 °C was found for `CCOC(=O)c1c[nH]c(C=C2C(=O)NN=C2c2cnccn2)c1-c1ccccc1` [Example 164, 4-[(4-Ethoxycarbonyl-3-phenylpyrrol-2-yl)methylene]-3-pyrazinyl-2-pyrazolin-5-one] in this work.
A melting point of 242 to 244 °C was found for `CCN(CC)Cc1c(C)[nH]c(C=C2C(=O)NN=C2c2cnccn2)c1C` [Example 166, 4-[(4-Diethylaminomethyl-3,5-dimethylpyrrol-2-yl)methylene]-3-pyrazinyl-2-pyrazolin-5-one] in this work.
A melting point of 240 to 242 °C was found for `Cc1[nH]c(C=C2C(=O)NN=C2c2cnccn2)c(C)c1CN1CCCCC1` [Example 167, 4-[(3,5-Dimethyl-4-piperidinomethylpyrrol-2-yl)methylene]-3-pyrazinyl-2-pyrazolin-5-one] in this work.
A melting point of 215 to 217 °C was found for `Cc1[nH]c(C=C2C(=O)NN=C2c2ccno2)c(C)c1CN1CCCCC1` [Example 168, 4-[(3,5-Dimethyl-4-piperidinomethylpyrrol-2-yl)methylene]-3-(5-isoxazolyl)-2-pyrazolin-5-one] in this work.
A melting point of 161 to 163 °C was found for `Cc1[nH]c(C=C2C(=O)NN=C2c2ccno2)c(C)c1CN(C)C` [Example 169, 4-[(3,5-Dimethyl-4-dimethylaminomethylpyrrol-2-yl)methylene]-3-(5-isoxazolyl)-2-pyrazolin-5-one] in this work.
A melting point of 193 to 195 °C was found for `Cc1[nH]c(C=C2C(=O)NN=C2c2cnccn2)cc1CN(C)C` [Example 170, 4-[(5-Methyl-4-dimethylaminomethylpyrrol-2-yl)methylene]-3-pyrazinyl-2-pyrazolin-5-one] in this work.
A melting point of 199 to 201 °C was found for `Cc1[nH]c(C=C2C(=O)NN=C2C2CC2)c(C)c1CN(C)C.O=C(O)/C=C\C(=O)O` [Example 174, 3-Cyclopropyl-4-[(3,5-dimethyl-4-dimethylaminomethylpyrrol-2-yl)methylene]-2-pyrazolin-5-one maleate] in this work.
In the case of `Cc1[nH]c(C=C2C(=O)NN=C2c2cnccn2)c(C)c1C(=O)CCCl` [Example 175, 4-{[4-(3-Chloropropionyl)-3,5-dimethylpyrrol-2-yl]methylene}-3-pyrazinyl-2-pyrazolin-5-one], the melting point is reported as 213 °C (dec.).
A melting point of 242 to 244 °C was found for `Cc1cc(C2=NNC(=O)C2=Cc2[nH]c(C)c(CN(C)C)c2C)no1` [Example 177, 4-[(3,5-Dimethyl-4-dimethylaminomethylpyrrol-2-yl)methylene]-3-(5-methyl-3-isoxazolyl)-2-pyrazolin-5-one] in this work.
A melting point of 255 to 257 °C was found for `Cc1[nH]c(C=C2C(=O)NN=C2c2cnccn2)c(C)c1CN1CCC(O)CC1` [Example 178, 4-{[3,5-Dimethyl-4-(4-hydroxypiperidinomethyl)pyrrol-2-yl]methylene}-3-pyrazinyl-2-pyrazolin-5-one] in this work.
A melting point of 205 to 208 °C was found for `Cc1[nH]c(C=C2C(=O)NN=C2c2cnccn2)c(C)c1CN.O=C(O)/C=C\C(=O)O` [Example 179, 4-[(4-Aminomethyl-3,5-dimethylpyrrol-2-yl)methylene]-3-pyrazinyl-2-pyrazolin-5-one maleate] in this work.
A melting point of 211 to 214 °C was found for `O=C1NN=C(c2cnccn2)C1=Cc1cc(CN2CCC(Cc3ccccc3)CC2)c[nH]1` [Example 180, 4-{[4-(4-Benzylpiperidino)methylpyrrol-2-yl]methylene}-3-pyrazinyl-2-pyrazolin-5-one] in this work.
A melting point of 306 to 308 °C was found for `Cc1[nH]c(C=C2C(=O)NN=C2c2cnccn2)c(C)c1CCO` [Example 181, 4-{[3,5-Dimethyl-4-(2-hydroxyethyl)pyrrol-2-yl]methylene}-3-pyrazinyl-2-pyrazolin-5-one] in this work.
A melting point of 244 to 246 °C was found for `Cc1[nH]c(C=C2C(=O)NN=C2C2CC2)c(C)c1CCO` [Example 184, 3-Cyclopropyl-4-{[3,5-Dimethyl-4-(2-hydroxyethyl)pyrrol-2-yl]methylene}-2-pyrazolin-5-one] in this work.
A melting point of 192 to 194 °C was found for `CCNCCc1c(C)[nH]c(C=C2C(=O)NN=C2c2cnccn2)c1C` [Example 185, 4-{[3,5-Dimethyl-4-(2-ethylaminoethyl)pyrrol-2-yl]methylene}-3-pyrazinyl-2-pyrazolin-5-one] in this work.
A melting point of 208.1 °C was found for `CCN(CC)CCCc1c(C)[nH]c(C=C2C(=O)NN=C2c2cnccn2)c1C` [Example 186, 4-{[4-(3-Diethylaminopropyl)-3,5-dimethylpyrrol-2-yl]methylene}-3-pyrazinyl-2-pyrazolin-5-one] in this work.
A melting point of 273 to 275 °C was found for `Cc1[nH]c(C=C2C(=O)NN=C2c2cnccn2)c(C)c1CCCO` [Example 187, 4-{[3,5-Dimethyl-4-(3-hydroxypropyl)pyrrol-2-yl]methylene}-3-pyrazinyl-2-pyrazolin-5-one] in this work.
A melting point of 198 °C was found for `CCOC1=NNC(=O)C1=Cc1[nH]c(C)c(C(=O)CN(C)C)c1C` [Example 189, 4-[(3,5-Dimethyl-4-dimethylaminoacetylpyrrol-2-yl)methylene]-3-ethoxy-2-pyrazolin-5-one] in this work.
A melting point of 216 °C was found for `Cc1[nH]c(C=C2C(=O)NN=C2c2cnccn2)c(C)c1CCN(C)C` [Example 191, 4-{[3,5-Dimethyl-4-(2-dimethylaminoethyl)pyrrol-2-yl]methylene}-3-pyrazinyl-2-pyrazolin-5-one] in this work.
A melting point of 222 °C was found for `Cc1[nH]c(C=C2C(=O)NN=C2c2cnccn2)c(C)c1CCCCO` [Example 192, 4-{[3,5-Dimethyl-4-(4-hydroxybutyl)pyrrol-2-yl]methylene}-3-pyrazinyl-2-pyrazolin-5-one] in this work.
A melting point of 184 °C was found for `CCN(CC)CCCCc1c(C)[nH]c(C=C2C(=O)NN=C2c2cnccn2)c1C` [Example 193, 4-{[4-(4-Diethylaminobutyl)-3,5-dimethylpyrrol-2-yl]methylene}-3-pyrazinyl-2-pyrazolin-5-one] in this work.
A melting point of 199 °C was found for `CCN(CC)CC(=O)c1c(C)[nH]c(C=C2C(=O)NN=C2c2cnccn2)c1C` [Example 196, 4-[(4-Diethylaminoacetyl-3,5-dimethylpyrrol-2-yl)methylene]-3-pyrazinyl-2-pyrazolin-5-one] in this work.
A melting point of 244 °C was found for `Cc1cc(C(C)C)c(C=C2C(=O)NN=C2c2cnccn2)[nH]1` [Example 197, 4-[(3-Isopropyl-5-methylpyrrol-2-yl)methylene]-3-pyrazinyl-2-pyrazolin-5-one] in this work.
A melting point of 227 °C was found for `Cc1[nH]c(C=C2C(=O)NN=C2c2cnccn2)c(C(C)C)c1CN(C)C` [Example 199, 4-[(Dimethylaminomethyl-3-isopropyl-5-methylpyrrol-2-yl)methylene]-3-pyrazinyl-2-pyrazolin-5-one] in this work.
A melting point of 190 to 192 °C was found for `Cc1[nH]c(C=C2C(=O)NN=C2C2CC2)c(C(C)C)c1CN(C)C` [Example 200, 3-Cyclopropyl-4-[(dimethylaminomethyl-3-isopropyl-5-methylpyrrol-2-yl)methylene]-2-pyrazolin-5-one] in this work.
A melting point of 210 to 218 °C was found for `Cc1[nH]c(C=C2C(=O)NN=C2c2cnccn2)c(C)c1CCNC1CC1` [Example 203, 4-{[4-(2-Cyclopropylaminoethyl)-3,5-dimethylpyrrol-2-yl]methylene}-3-pyrazinyl-2-pyrazolin-5-one] in this work.
A melting point of 203 to 205 °C was found for `Cc1[nH]c(C=C2C(=O)NN=C2c2cnccn2)c(C)c1CCNCc1ccncc1` [Example 204, 4-{{3,5-Dimethyl-4-[2-(4-pyridylmethylamino)ethyl]pyrrol-2-yl}methylene}-3-pyrazinyl-2-pyrazolin-5-one] in this work.
A melting point of 144 to 146 °C was found for `CCN(CC)CCc1c(C)[nH]c(C=C2C(=O)NN=C2c2ncccn2)c1C` [Example 206, 4-{[4-(2-Diethylaminoethyl)-3,5-dimethylpyrrol-2-yl]methylene}-3-(2-pyrimidinyl)-2-pyrazolin-5-one] in this work.
A melting point of 218 to 220 °C was found for `CCN(CC)CCc1c(C)[nH]c(C=C2C(=O)NN=C2c2cccnn2)c1C` [Example 207, 4-{[4-(2-Diethylaminoethyl)-3,5-dimethylpyrrol-2-yl]methylene}-3-(3-pyridazinyl)-2-pyrazolin-5-one] in this work.
A melting point of 220 °C was found for `CCN(CC)CCc1c(C)[nH]c(C=C2C(=O)NN=C2c2ccncn2)c1C` [Example 208, 4-{[4-(2-Diethylaminoethyl)-3,5-dimethylpyrrol-2-yl]methylene}-3-(4-pyrimidinyl)-2-pyrazolin-5-one] in this work.
